The source of these data is paper PMC6769468, “Endogenous Neuropeptide Nocistatin Is a Direct Agonist of Acid-Sensing Ion Channels (ASIC1, ASIC2 and ASIC3)” (Biomolecules, 2019).

Ends that are not written are not given here.

For one assay, the system named is mice. The conditions noted are these: ref [28]; cited from earlier work. The text has this:
(§1) The nocistatin in mammalian is expressed as a precursor protein coding three neuropeptides (nocistatin, nociceptin, and Orphanin FQ2). […] Nocistatin is well represented in different parts of the brain and spinal cord. […] Nocistatin was studied in animal models as a prospective molecule together with opi ...

The test system of a further assay is NIPSNAP1. The conditions noted are these: ref [32]; cited from earlier work.
Source text: as §1

The next assay deals with mouse. The conditions noted are these: cited from earlier work.
Source text: as §1

For assay [1], the system named is canonical transient receptor potential cation (TRPC) channels. The conditions noted are these: via unidentified G-coupled receptor(s), Gαq/11-phospholipase C-protein kinase C pathway; ref [31]; cited from earlier work.
Source text: as §1

The conditions of assay [2]: ref [27]; cited from earlier work.
Source text: as §1

The target in the next assay is T1, rat ASIC3 (Rattus norvegicus, UniProt O35240).
T1 construct: expressed in transfected cells; host or cells: Xenopus laevis oocytes (injected)
T1 sequence (O35240 1-533): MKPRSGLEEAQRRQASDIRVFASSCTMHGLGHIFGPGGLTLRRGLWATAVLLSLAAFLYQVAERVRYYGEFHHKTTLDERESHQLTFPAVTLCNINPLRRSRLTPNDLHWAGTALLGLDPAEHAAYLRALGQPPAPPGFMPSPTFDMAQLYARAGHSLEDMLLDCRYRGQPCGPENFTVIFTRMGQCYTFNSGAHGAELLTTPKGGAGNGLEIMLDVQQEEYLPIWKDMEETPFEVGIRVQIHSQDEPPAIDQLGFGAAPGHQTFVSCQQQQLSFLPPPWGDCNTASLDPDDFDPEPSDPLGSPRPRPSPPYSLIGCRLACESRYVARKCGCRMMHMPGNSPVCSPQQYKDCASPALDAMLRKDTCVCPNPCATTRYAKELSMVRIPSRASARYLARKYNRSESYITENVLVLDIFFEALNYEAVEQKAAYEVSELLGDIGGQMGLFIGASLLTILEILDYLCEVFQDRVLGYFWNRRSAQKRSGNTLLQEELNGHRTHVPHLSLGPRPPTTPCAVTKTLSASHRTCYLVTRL
Put plainly: Whole-cell current activation, rat ASIC3 in X. laevis oocytes. Format: cell-based. The procedure: Oocytes expressed rASIC1a, rASIC1b, rASIC2a, and rASIC3 homomeric channels were prepared as described. Injected oocytes were kept for two–three days at 19 °C and then for up to seven days at 15 °C in ND-96 medium supplemented with gentamycin (50 μg·mL^−1) and containing (in mM): 96 NaCl, 2 KCl, 1.8 CaCl2, 1 MgCl2, and 10 HEPES titrated to pH 7.4 with NaOH. Electrophysiological recordings were performed using the GeneClamp500 amplifier (Axon Instruments, Inverurie, UK) at a holding potential of -50 mV. The data were filtered at 20 Hz and digitized at 100 Hz using the L780 AD converter (L-Card, Moscow, Russia). Microelectrodes were filled with 3 M KCl. The external bath solution was ND-96 with pH adjusted to 7.4/7.8 (10 mM HEPES) /8.5 (10 mM Tris). Nocistatin containing solutions were freshly prepared and buffered each experimental day in ND-96 bath solution (pH 7.4/7.8/8.5). Proton-activated currents through ASIC channels were elicited by application of ND-96, in which 10 mM of HEPES was substituted with 10 mM MES at pH 5.5/ 10 mM acetic acid at pH 4.5. […]
All data are presented as mean ± SEM. The significance of normalized data differences was determined with a non-parametric Kruskal-Wallis ANOVA test with the significance level * p < 0.05 and ** p < 0.01; ns, non-significant.

On to “MPRVRSVVQARDAEPEADAEPVADEADEVEQKQLQ [rNS]”, for which, in the assay with mice, the “Effect in elevated plus-maze test” value is given as “produced anxiogenic-like actions”. Moreover, in the assay on NIPSNAP1, the “Binding to NIPSNAP1” value was “nocistatin binding proteins”. Besides, the “Effect on nociceptin-caused allodynia and thermal hyperalgesia” value in the assay on mouse (doses of 0.5–500 pg per mouse, ref [29]) is “eliminated allodynia and thermal hyperalgesia effects”. For the same sequence, the “Effect in algogenic-induced nociceptive flexion test” value in the assay on mouse (i.pl. 0.01–1 pmol per mouse, ref [30]) is “induced pronociceptive responses”. Besides, in assay [1], the “Effect on TRPC channels” value was “opening of canonical transient receptor potential cation (TRPC) channels”. In addition, the “Effect on scopolamine-induced impairment of learning and memory” value in assay [2] is “prevented the disruption of learning and memory processes”. Further, at rat ASIC3 (1 mM rNS vs pH drop 7.4–5.5, slower activation), the “tmax greater than for protons by” value is ~ 49%. Further, at rat ASIC3 (1 mM rNS, conditioning pH 7.4, mean ± S.E. from 4–7 measurements), the “τdes (desensitization time constant)” value worked out at 0.4 ± 0.1 s.
